Measured values from PubChem BioAssay AID2060496 (Molecular Pharmacology Branch, DTP, NCI, 2025).

System: 276233-004-R-J1-PDC complex spheroid viability
Assay: Anticancer human tumor 276233-004-R-J1-PDC patient-derived colon adenocarcinoma cell line growth inhibition [GQUAD]
Details: for IC50: curve of first compound; for viability, T/C: stronger effect = lower value; active = viability on the fitted dose curve at most 10% of control; inactive = the rest
Excerpt: DNA G-quadruplex Stabilizer Agents in Combinations in Complex Spheroids
A high-throughput screen of multi-cell type tumor spheroids was designed to identify active combinations of DNA G-quadruplex stabilizer agents and targeted small molecules. Complex spheroids include a stromal component modeled by human endothelial cells (HUVEC) and fibroblasts modeled by human mesenchymal stem cells (MSCs). The concentration ranges selected for each drug and investigational agent were based upon clinically achievable concentrations if the clinical Cmax of the agent was known.
Compounds. The drugs and investigational agents: pidnarulex (CX-5461; NSC782164), APTO-253 (NSC789042), BRACO-19 (NSC847499), peposertib (NSC802822), ceralasertib (NSC780249), elimusertib (NSC800525), camonsertib (NSC841442), AZD-1390 (NSC803789), olaparib (NSC753686), talazoparib (NSC767125), ART-558 (NSC835418), sotorasib (NSC818433), MRTX-1133 (NSC836407), SN-38 (NSC673596), topotecan (NSC609699), etoposide (NSC141540), doxorubicin (NSC123127), gemcitabine (NSC613327), 5-fluorouracil (NSC19893), paclitaxel (NSC125973), vemurafenib (NSC761431), panobinostat (NSC761190), R-306465 (JNJ-16241199; NSC773264), adavosertib (NSC754352), TP-3654 (NSC805149), carboplatin (NSC241240), KSQ-4279 (NSC840948), and staurosporine (NSC755774) were obtained from the National Cancer Institute (NCI) Developmental Therapeutics Program Chemical Repository (34). The FDA-approved anticancer drug set is available from the NCI Developmental Therapeutics Program. […] The stock solutions were prepared in dimethyl sulfoxide (DMSO, Sigma-Aldrich, St. Louis, MO, cat. D2650) at 800-fold the tested concentration and stored at -70 degrees C prior to their use. All drugs and investigational agents were tested over a range starting from a high concentration at or near the clinical Cmax and decreasing in half-log increments. If the clinical Cmax for an agent had not been determined, the highest concentration tested was 10 microM.
2.3 Cell Culture. All cells were maintained in an incubator at 37 degrees C and 5% CO2 with 95% humidity. The PDC lines were cultured according to standard operating procedures established by the NCI PDMR. All PDCs were thawed and cultured in Matrigel-coated flasks prepared with a working solution of 1X Ham's F-12 nutrient mix, without supplementation (Invitrogen, cat. 11765054), 100 U/mL penicillin-streptomycin (Invitrogen, cat. 15140122), and 2.5% Matrigel (Corning Inc., cat. 354248) for the first three passages. The 857933-349-R-J2-PDC line was cultured in 6C/Colon 1B media, which includes advanced DMEM/F-12 (Thermo Fisher Scientific, cat. 12634028), 10 mM HEPES (Thermo Fisher Scientific, cat. 15630080), 1X GlutaMAX supplement (Thermo Fisher Scientific, cat. 35050061), 0.1 mg/mL primocin (InvivoGen, cat. ant-pm-2), 10% defined fetal bovine serum, heat inactivated (HyClone Laboratories Inc., cat. SH30070.03HI), 50% L-WRN conditioned media (ATCC, cat. CRL-3276), 1.25 mM N-Acetyl-L-cysteine (Sigma-Aldrich, cat. A9165), 10 mM nicotinamide (Sigma-Aldrich, cat. N0636), 1X B-27 supplement (Thermo Fisher Scientific, cat. 17504044), 1X N-2 supplement (Thermo Fisher Scientific, cat. 17502048), 10 microM Y-27632 dihydrochloride (Tocris Bioscience, cat. 1254), and 50 ng/mL human EGF recombinant protein (Thermo Fisher Scientific, cat. PHG0311). The 485176-168-R4-J1-PDC line was cultured in Panc media, which includes all 6C/Colon 1B media components plus 100 ng/mL human FGF-10 (Thermo Fisher Scientific, cat. 100-26), 500 nM SB-431542 (Selleckchem, cat. S1067), and gastrin (Tocris, cat. 3006).
[…]
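Also: spheroids exposed to drugs for seven days.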

CC(C)(O)C1CCC(Nc2ccc3ncc(-c4cccc(C(F)(F)F)c4)n3n2)CC1 (configuration not stated) + Cc1cnc(CNC(=O)c2c(=O)c3ccc(N4CCCN(C)CC4)nc3n3c2sc2ccccc23)cn1
0.995 µM: IC50 (second compound 10 µM)
active: viability, T/C (second compound 10 µM, first compound 3.16 µM) 7.86% | viability, T/C (second compound 10 µM, first compound 10 µM) 3.2%
3 µM: IC50 (second compound 1 µM)
0.994 µM: IC50 (second compound 3.16 µM)
inactive: viability, T/C (second compound 0.0316 µM, first compound 0.0316 µM) 94.9% | viability, T/C (second compound 0.0316 µM, first compound 0.1 µM) 79.8% | viability, T/C (second compound 0.0316 µM, first compound 0.316 µM) 81.8% | viability, T/C (second compound 0.0316 µM, first compound 1 µM) 70.6% | viability, T/C (second compound 0.0316 µM, first compound 3.16 µM) 55.2% | viability, T/C (second compound 0.0316 µM, first compound 10 µM) 58.8% | viability, T/C (second compound 0.1 µM, first compound 0.0316 µM) 83.2% | viability, T/C (second compound 0.1 µM, first compound 0.1 µM) 109% | viability, T/C (second compound 0.1 µM, first compound 0.316 µM) 78.4% | viability, T/C (second compound 0.1 µM, first compound 1 µM) 68.9% | viability, T/C (second compound 0.1 µM, first compound 3.16 µM) 49.4% | viability, T/C (second compound 0.1 µM, first compound 10 µM) 55.6% | viability, T/C (second compound 0.316 µM, first compound 0.0316 µM) 84.3% | viability, T/C (second compound 0.316 µM, first compound 0.1 µM) 92.5% | viability, T/C (second compound 0.316 µM, first compound 0.316 µM) 83.7% | viability, T/C (second compound 0.316 µM, first compound 1 µM) 63.1% | viability, T/C (second compound 0.316 µM, first compound 3.16 µM) 54% | viability, T/C (second compound 0.316 µM, first compound 10 µM) 49.5% | viability, T/C (second compound 1 µM, first compound 0.0316 µM) 80.4% | viability, T/C (second compound 1 µM, first compound 0.1 µM) 89.2% | viability, T/C (second compound 1 µM, first compound 0.316 µM) 84.7% | viability, T/C (second compound 1 µM, first compound 1 µM) 67.7% | viability, T/C (second compound 1 µM, first compound 3.16 µM) 50.4% | viability, T/C (second compound 1 µM, first compound 10 µM) 45.4% | viability, T/C (second compound 3.16 µM, first compound 0.0316 µM) 79.9% | viability, T/C (second compound 3.16 µM, first compound 0.1 µM) 74.3% | viability, T/C (second compound 3.16 µM, first compound 0.316 µM) 69.8% | viability, T/C (second compound 3.16 µM, first compound 1 µM) 51.1% | viability, T/C (second compound 3.16 µM, first compound 3.16 µM) 34.7% | viability, T/C (second compound 3.16 µM, first compound 10 µM) 39.1% | viability, T/C (second compound 10 µM, first compound 0.0316 µM) 75.6% | viability, T/C (second compound 10 µM, first compound 0.1 µM) 57% | viability, T/C (second compound 10 µM, first compound 0.316 µM) 58.6% | viability, T/C (second compound 10 µM, first compound 1 µM) 50.5%
> 10 µM: IC50 (second compound 0.0316 µM) | IC50 (second compound 0.1 µM) | IC50 (second compound 0.316 µM)
